According to ChEMBL document CHEMBL3885881, “DrugMatrix”:

Organism: Rattus norvegicus
Experiment: DrugMatrix - Regimen: Daily Repeat
Type: toxicity, organism-based, Sprague-Dawley
Set-up: regimen Daily Repeat, gender Male, age 6-8 weeks
Conditions: in vivo, po, route oral GAVAGE, […]; for ABSOLUTE BASOPHIL / ABSOLUTE EOSINOPHIL / ABSOLUTE LYMPHOCYTE / ABSOLUTE MONOCYTE / ABSOLUTE SEGMENTED NEUTROPHIL / BASOPHIL / EOSINOPHIL / ERYTHROCYTE COUNT / HEMATOCRIT / HEMOGLOBIN / LEUKOCYTE COUNT / LYMPHOCYTE / MEAN CORPUSCULAR HEMOGLOBIN / MEAN CORPUSCULAR HEMOGLOBIN CONCENTRATION / MEAN CORPUSCULAR VOLUME / MONOCYTE / NEUTROPHIL / NUCLEATED RED BLOOD CELLS / PLATELET COUNT: tissue Blood; for ALANINE AMINOTRANSFERASE / ALBUMIN / ALKALINE PHOSPHATASE / ASPARTATE AMINOTRANSFERASE / BLOOD UREA NITROGEN / CARBON DIOXIDE / CHLORIDE / CHOLESTEROL / CREATINE PHOSPHOKINASE / CREATININE / GLUCOSE / LACTATE DEHYDROGENASE / LIPASE / PHOSPHORUS / POTASSIUM / SODIUM / TOTAL BILIRUBIN / TOTAL PROTEIN / URIC ACID: tissue Plasma
[1] = 1 mg/kg, 120 h, dose level Low, time 5 day
[2] = 14 mg/kg, 72 h, dose level High, time 3 day
[3] = 14 mg/kg, 120 h, dose level High, time 5 day

Compound: CCOC(=O)C1=C(C)NC(C)=C(C(=O)OCC)C1c1ccccc1/C=C/C(=O)OC(C)(C)C [LACIDIPINE]
- ABSOLUTE BASOPHIL [1]: 0 CELLS/uL
- ABSOLUTE EOSINOPHIL [1]: 0 CELLS/uL
- ABSOLUTE LYMPHOCYTE [1]: 13674 CELLS/uL
- ABSOLUTE MONOCYTE [1]: 253 CELLS/uL
- ABSOLUTE SEGMENTED NEUTROPHIL [1]: 1206.33 CELLS/uL
- BASOPHIL [1]: 0%
- EOSINOPHIL [1]: 0%
- ERYTHROCYTE COUNT [1]: 6.05 x10E6/uL
- HEMATOCRIT [1]: 38.43%
- HEMOGLOBIN [1]: 15 G/DL
- LEUKOCYTE COUNT [1]: 15.13 x10E3/uL
- LYMPHOCYTE [1]: 90.33%
- MEAN CORPUSCULAR HEMOGLOBIN [1]: 24.8 pg
- MEAN CORPUSCULAR HEMOGLOBIN CONCENTRATION [1]: 39.07 G/DL
- MEAN CORPUSCULAR VOLUME [1]: 63.47 fL
- MONOCYTE [1]: 1.67%
- NEUTROPHIL [1]: 8%
- NUCLEATED RED BLOOD CELLS [1]: 0.33 /100WBC
- PLATELET COUNT [1]: 1182 x10E3/uL
- ALANINE AMINOTRANSFERASE [1]: 60.33 u/L
- ALBUMIN [1]: 4.13 G/DL
- ALKALINE PHOSPHATASE [1]: 378.33 u/L
- ASPARTATE AMINOTRANSFERASE [1]: 70.67 u/L
- BLOOD UREA NITROGEN [1]: 12.67 mg/dL
- CARBON DIOXIDE [1]: 30 mmol/L
- CHLORIDE [1]: 99.67 MEQ/L
- CHOLESTEROL [1]: 69 mg/dL
- CREATINE PHOSPHOKINASE [1]: 271.67 u/L
- CREATININE [1]: 0.17 mg/dL
- GLUCOSE [1]: 166.33 mg/dL
- LACTATE DEHYDROGENASE [1]: 125.67 u/L
- LIPASE [1]: 10 u/L
- PHOSPHORUS [1]: 10.93 mg/dL
- POTASSIUM [1]: 6.75 MEQ/L
- SODIUM [1]: 141.97 MEQ/L
- TOTAL BILIRUBIN [1]: 0.17 mg/dL
- TOTAL PROTEIN [1]: 5.83 G/DL
- URIC ACID [1]: 1.9 mg/dL
- ABSOLUTE BASOPHIL [2]: 0 CELLS/uL
- ABSOLUTE EOSINOPHIL [2]: 0 CELLS/uL
- ABSOLUTE LYMPHOCYTE [2]: 6598.33 CELLS/uL
- ABSOLUTE MONOCYTE [2]: 95.33 CELLS/uL
- ABSOLUTE SEGMENTED NEUTROPHIL [2]: 673 CELLS/uL
- BASOPHIL [2]: 0%
- EOSINOPHIL [2]: 0%
- ERYTHROCYTE COUNT [2]: 6.39 x10E6/uL
- HEMATOCRIT [2]: 38.67%
- HEMOGLOBIN [2]: 15.2 G/DL
- LEUKOCYTE COUNT [2]: 7.37 x10E3/uL
- LYMPHOCYTE [2]: 89.67%
- MEAN CORPUSCULAR HEMOGLOBIN [2]: 23.8 pg
- MEAN CORPUSCULAR HEMOGLOBIN CONCENTRATION [2]: 39.33 G/DL
- MEAN CORPUSCULAR VOLUME [2]: 60.53 fL
- MONOCYTE [2]: 1.33%
- NEUTROPHIL [2]: 9%
- NUCLEATED RED BLOOD CELLS [2]: 0.33 /100WBC
- PLATELET COUNT [2]: 1020.33 x10E3/uL
- ALANINE AMINOTRANSFERASE [2]: 81.67 u/L
- ALBUMIN [2]: 4 G/DL
- ALKALINE PHOSPHATASE [2]: 315.33 u/L
- ASPARTATE AMINOTRANSFERASE [2]: 94 u/L
- BLOOD UREA NITROGEN [2]: 9.33 mg/dL
- CARBON DIOXIDE [2]: 25 mmol/L
- CHLORIDE [2]: 94.33 MEQ/L
- CHOLESTEROL [2]: 62.33 mg/dL
- CREATINE PHOSPHOKINASE [2]: 287 u/L
- CREATININE [2]: 0.4 mg/dL
- GLUCOSE [2]: 140 mg/dL
- LACTATE DEHYDROGENASE [2]: 223.33 u/L
- LIPASE [2]: 9.67 u/L
- PHOSPHORUS [2]: 8.63 mg/dL
- POTASSIUM [2]: 4.28 MEQ/L
- SODIUM [2]: 137.47 MEQ/L
- TOTAL BILIRUBIN [2]: 0.2 mg/dL
- TOTAL PROTEIN [2]: 5.47 G/DL
- URIC ACID [2]: 0.53 mg/dL
- ABSOLUTE BASOPHIL [3]: 0 CELLS/uL
- ABSOLUTE EOSINOPHIL [3]: 59.67 CELLS/uL
- ABSOLUTE LYMPHOCYTE [3]: 14336 CELLS/uL
- ABSOLUTE MONOCYTE [3]: 190.33 CELLS/uL
- ABSOLUTE SEGMENTED NEUTROPHIL [3]: 2280.67 CELLS/uL
- BASOPHIL [3]: 0%
- EOSINOPHIL [3]: 0.33%
- ERYTHROCYTE COUNT [3]: 6.95 x10E6/uL
- HEMATOCRIT [3]: 41.6%
- HEMOGLOBIN [3]: 16.07 G/DL
- LEUKOCYTE COUNT [3]: 16.87 x10E3/uL
- LYMPHOCYTE [3]: 85.33%
- MEAN CORPUSCULAR HEMOGLOBIN [3]: 23.17 pg
- MEAN CORPUSCULAR HEMOGLOBIN CONCENTRATION [3]: 38.67 G/DL
- MEAN CORPUSCULAR VOLUME [3]: 59.9 fL
- MONOCYTE [3]: 1%
- NEUTROPHIL [3]: 13.33%
- NUCLEATED RED BLOOD CELLS [3]: 0 /100WBC
- PLATELET COUNT [3]: 1126 x10E3/uL
- ALANINE AMINOTRANSFERASE [3]: 90.33 u/L
- ALBUMIN [3]: 4.47 G/DL
- ALKALINE PHOSPHATASE [3]: 262.33 u/L
- ASPARTATE AMINOTRANSFERASE [3]: 95.67 u/L
- BLOOD UREA NITROGEN [3]: 10.33 mg/dL
- CARBON DIOXIDE [3]: 25.33 mmol/L
- CHLORIDE [3]: 97.67 MEQ/L
- CHOLESTEROL [3]: 58.67 mg/dL
- CREATINE PHOSPHOKINASE [3]: 234.67 u/L
- CREATININE [3]: 0.14 mg/dL
- GLUCOSE [3]: 154.67 mg/dL
- LACTATE DEHYDROGENASE [3]: 217 u/L
- LIPASE [3]: 9.33 u/L
- PHOSPHORUS [3]: 11.23 mg/dL
- POTASSIUM [3]: 4.62 MEQ/L
- SODIUM [3]: 138.03 MEQ/L
- TOTAL BILIRUBIN [3]: 0.33 mg/dL
- TOTAL PROTEIN [3]: 5.93 G/DL
- URIC ACID [3]: 1.6 mg/dL
